Measurements: publication PMC6628648, “Enabling microbial syringol conversion through structure-guided protein engineering” (Proceedings of the National Academy of Sciences of the …, 2019)

Columns and labels:
GcoA variant F169S = molecular target: T1, GcoA variant F169S (Amycolatopsis sp., UniProt P0DPQ7, F169S); test: End-point coupling assay (formaldehyde produced per NADH consumed); format: biochemical, Amycolatopsis sp. ATCC 39116; settings: molar ratio formaldehyde produced per NADH consumed, 200 µM NADH, 200 µM aromatic substrate
T1 construct: GST (N, cleaved yes); made in house; host or cells: E. coli Rosetta 2 (DE3)
Experimental: (§1) The [formaldehyde] produced on reaction with GcoA-F169A and substrates was determined using a colorimetric assay with tryptophan ([28], [42]); details are provided in SI Appendix. […]
(§2) vi = Vmax[S]/(KM + [S]) (4) […]
(§3) Formaldehyde determination. A colorimetric assay using tryptophan can be used to quantify the amount of formaldehyde produced in F169 GcoA/B reactions with guaiacol, syringol, or 3MC. 0.2 µM each of F169 GcoA mutants and GcoB were dissolved in air-saturated buffer (25 mM HEPES, 50 mM NaCl) in a cuvette at pH 7.5, 25 °C. 100 µg/mL catalase was added to each reaction to capture any H2O2 formed during the uncoupled reaction. 200 μM NADH was added and the background rate recorded. 100 (guaiacol, syringol, or 3MC) or 200 (syringol) μM of substrate was then added and the reaction monitored until there was no more change, due to either substrate, NADH or O2 depletion, whichever occurred first. 200 µL of the reaction was then quenched by adding 200 µL of a 0.1% tryptophan solution in 50% ethanol and 200 µL of 90% sulfuric acid. Upon thorough mixing, 40 µL of 1% FeCl3 was added. The solution was then incubated in a heating block for 90 min at 70 °C. After cooling, the absorbance was read at 575 nm and the [formaldehyde] calculated by using ε575 nm = 4.2 mM-1 cm-1, obtained with formaldehyde as a standard (1). A negative control included everything but the substrate and was used as a baseline. […]
(§4) The reaction of each aliquot was immediately quenched with 12.5
(§5) μL saturated ammonium sulfate, 7% v/v H2SO4 (pH 2.0) prior to loading onto the HPLC column. [Substrate] disappearance was referenced to GcoA (0.2 µM) and fit to a linear line to determine specific activity.
(§6) Data analysis. The consumption of NADH and subsequent production of formaldehyde and aromatic product were measured in triplicate and the error reported as ±1 standard deviation. To determine the statistical significance between NADH consumption and the products produced, the p-value was determined for all runs containing guaiacol, syringol, and 3MC. These values were calculated using two degrees of freedom, a tail value of two, and assuming a t-statistical value for unequal variances.
(§7) Detection of H2O2 via horseradish peroxidase (HRP) and Amplex Red assay. The reaction between 100 μM guaiacol or 3MC with 0.2 μM F169A/GcoB and 100 μM NADH in air-saturated buffer (25 mM HEPES, 50 mM NaCl, pH 7.5) was monitored continuously in a quartz cuvette, using the NADH consumption assay described above. The same thing was done for syringol, but with either 100 or 200 μM NADH. When there was no longer any change in the spectra, e.g., the reaction was completed, 100 μL was removed from the cuvette and pipetted into a 96-well microplate. A 5 mL solution containing 50 μL of 10 mM Amplex Red (prepared in DMSO and stored at -20 °C) and 100 μL of 10 U/mL HRP was made up in the above buffer. 100 μL of this was added to each of the wells with each reaction sample. The plate was incubated in the dark at room temperature for 30 min, at which point the absorbance at […]
(§8) Table S1. Rate of substrate disappearance or product appearance (specific activity) for F169A.
(§9) Substrate NADH disappearance aromatic substrate disappearance KD (µM) […]
(§10) Table S2. Rates of substrate disappearance and coupling efficiencies for reactions catalyzed by the GcoA-F169 variants.
(§11) GcoA Specific activity Coupling Specific activity Coupling Specific activity (μmol Coupling variant (μmol sec-1 μmol-1 efficiency (μmol sec-1 μmol-1 efficiency sec-1 μmol-1 GcoA)a efficiency GcoA)a (%)b GcoA)a (%)b (%)b […]
(§12) aNADH consumption was monitored continuously over time via UV/vis and quantifying with ε340 = 6.22 mM-1 cm-1 at 25°C, 25 mM HEPES, 50 mM NaCl, pH 7.5 and saturating (200 µM) concentrations of all substrates (syringol, guaiacol, and 3MC). bCalculated as the molar ratio of formaldehyde produced per NADH consumed in a fixed-time assay. Assay conditions: 0.2 µM […]

GcoA variant F169V = molecular target: T2, GcoA variant F169V (Amycolatopsis sp., UniProt P0DPQ7, F169V); test: as above; format: biochemical, Amycolatopsis sp. ATCC 39116; settings: molar ratio formaldehyde produced per NADH consumed, 200 µM NADH, 200 µM aromatic substrate
T2 construct: GST (N, cleaved yes); made in house; host or cells: E. coli Rosetta 2 (DE3)
Experimental: as §1, §2, §3, §4, §5, §6, §7, §8, §9, §10, §11, §12

GcoA variant F169H = molecular target: T3, GcoA variant F169H (Amycolatopsis sp., UniProt P0DPQ7, F169H); test: as above; format: biochemical, Amycolatopsis sp. ATCC 39116; settings: molar ratio formaldehyde produced per NADH consumed, 200 µM NADH, 200 µM aromatic substrate
T3 construct: GST (N, cleaved yes); made in house; host or cells: E. coli Rosetta 2 (DE3)
Experimental: as §1, §2, §3, §4, §5, §6, §7, §8, §9, §10, §11, §12

GcoA variant F169I = molecular target: T4, GcoA variant F169I (Amycolatopsis sp., UniProt P0DPQ7, F169I); test: as above; format: biochemical, Amycolatopsis sp. ATCC 39116; settings: molar ratio formaldehyde produced per NADH consumed, 200 µM NADH, 200 µM aromatic substrate
T4 construct: GST (N, cleaved yes); made in house; host or cells: E. coli Rosetta 2 (DE3)
Experimental: as §1, §2, §3, §4, §5, §6, §7, §8, §9, §10, §11, §12

GcoA variant F169L = molecular target: T5, GcoA variant F169L (Amycolatopsis sp., UniProt P0DPQ7, F169L); test: as above; format: biochemical, Amycolatopsis sp. ATCC 39116; settings: molar ratio formaldehyde produced per NADH consumed, 200 µM NADH, 200 µM aromatic substrate
T5 construct: GST (N, cleaved yes); made in house; host or cells: E. coli Rosetta 2 (DE3)
Experimental: as §1, §2, §3, §4, §5, §6, §7, §8, §9, §10, §11, §12

WT GcoA = molecular target: T6, WT GcoA (Amycolatopsis sp., UniProt P0DPQ7); test: biochemical; format: binding, Amycolatopsis sp. ATCC 39116; settings: for %Fe(III) spin state conversion: WT GcoA, final high-spin (388 nm) divided by starting low-spin (417 nm)
T6 construct: GST (N, cleaved yes); made in house; host or cells: E. coli Rosetta 2 (DE3)
T6 sequence (P0DPQ7 whole entry): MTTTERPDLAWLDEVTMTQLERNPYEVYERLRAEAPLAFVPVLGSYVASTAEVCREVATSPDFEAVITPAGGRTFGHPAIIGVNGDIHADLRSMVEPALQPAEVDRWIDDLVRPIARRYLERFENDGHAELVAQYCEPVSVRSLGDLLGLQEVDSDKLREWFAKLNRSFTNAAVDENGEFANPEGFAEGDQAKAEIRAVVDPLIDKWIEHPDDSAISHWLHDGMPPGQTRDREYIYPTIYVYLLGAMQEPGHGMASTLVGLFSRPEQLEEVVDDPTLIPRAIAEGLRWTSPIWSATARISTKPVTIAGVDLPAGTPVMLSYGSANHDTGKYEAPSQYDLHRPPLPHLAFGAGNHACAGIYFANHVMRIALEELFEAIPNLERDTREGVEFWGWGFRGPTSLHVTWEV

T2 sequence (P0DPQ7 whole entry F169V): as the sequence (P0DPQ7 whole entry) above, with F169V counted along it
T5 sequence (P0DPQ7 whole entry F169L): as the sequence (P0DPQ7 whole entry) above, with F169L counted along it
T4 sequence (P0DPQ7 whole entry F169I): as the sequence (P0DPQ7 whole entry) above, with F169I counted along it
T3 sequence (P0DPQ7 whole entry F169H): as the sequence (P0DPQ7 whole entry) above, with F169H counted along it
T1 sequence (P0DPQ7 whole entry F169S): as the sequence (P0DPQ7 whole entry) above, with F169S counted along it

Compound	Coupling efficiency (GcoA variant F169S) [%]	Coupling efficiency (GcoA variant F169V) [%]	Coupling efficiency (GcoA variant F169H) [%]	Coupling efficiency (GcoA variant F169I) [%]	Coupling efficiency (GcoA variant F169L) [%]	%Fe(III) spin state conversion (WT GcoA) [%]	Kd (WT GcoA) [nM]
COc1cccc(O)c1O [3MC, 3-methoxycatechol]	67 ± 8	40 ± 3	28 ± 20	10 ± 9	5.0 ± 4	62 ± 0.01	–
COc1ccccc1O [guaiacol, 2-methoxyphenol]	67 ± 8	105 ± 2	103 ± 10	41 ± 10	73 ± 3	87 ± 1	6.5 ± 2
COc1cccc(OC)c1O [syringol, 2,6-dimethoxyphenol]	85 ± 5	100 ± 10	56 ± 7	14 ± 2	7.8 ± 2	56 ± 2	–
